Tests used:
[1] = test system: heterozygous Shank3-deficient mice; test: Shank3-deficient mice: male-female social interactions and ultrasonic vocalizations; assay type: in vivo; conditions: Shank3-deficient groups; 15 or 60 mg/kg oral b.i.d 14 days; vs placebo
Experimental: 1 to 3 month old wild-type and heterozygous Shank3-deficient mice are divided into 4 treatment groups: placebo treated wild-type, placebo treated Shank3-deficient group and two Shank3-deficient cG-2-AllylP treated groups. The animals are given placebo (water) or cG-2-AllylP formulated in water administered orally, b.i.d for 14 days. cG-2-AllylP is administered at two doses: 15 or 60 mg/kg.
Behavioral assessments are made at several time points, and include analysis of social interactions and ultrasonic social communication, in line with the methodology described by Bozdagi et al. Briefly, male-female social interactions in each treatment group are evaluated. The subject males are group-housed and individually tested in clean cages with clean litter. Each testing session lasts 5 min. […] Videos from the male subjects are subsequently scored by an investigator uninformed of the subject's genotype and treatment group on measures of nose-to-nose sniffing, nose-to-anogenital sniffing and sniffing of other body regions, using Noldus Observer software (Noldus Information Technology, Leesburg, Va., USA). Ultrasonic vocalizations are identified manually by two highly trained investigators blinded to genotype/treatment group information, and summary statistics are calculated using the Avisoft package. […] Data are analysed using an unpaired Student's t-test.

layer 5 cortical neurons = test: Intracellular whole-cell recordings of spontaneous EPSCs in acute brain slices; assay type: in vivo, mice; conditions: MeCP2-/y animals; 20 mg/kg daily; vs vehicle
fmr1-knockout animals = test: Sociability: bouts of sniffing a novel mouse; assay type: in vivo, mice; conditions: p<0.001
Experimental: Social recognition and social memory in mice were evaluated by the amount of time spent sniffing a novel mouse upon repeated exposures, to induce familiarity, and reinstatement of high levels of sniffing when a novel stimulus animal is introduced. We measured the number of bouts of sniffing in each of the groups of animals.

[2] = test system: Fmr1-K02 mice and wildtype (WT) littermates; test: Inspection of animals for toxicity in Fragile X studies; assay type: in vivo; conditions: fmr1-knockout and wild-type mice
Experimental: Experiments were conducted in accordance with the United Kingdom Animals (Scientific Procedures) Act of 1986. Fmr1-K02 mice and wildtype (WT) littermates were generated on a C57BL/6J background and repeatedly backcrossed onto a C57BL/6J background for more than eight generations and send to Chile by the Jackson's laboratory. Mice were grouping housed (4-6 per cage) and all animals were provided with ad libitum food and water unless otherwise stated. Mice were maintained on a 12 h light/dark cycle (lights off 19:00 to 7:00) in a temperature-controlled environment (21±1° C.).
Animals were inspected for differences in coat appearance, whether any piloerection is present, eye condition (runny eyes or porphyria, ptosis) gait appearance, tremor, tail tone, reactivity to handling, etc.

[3] = test system: rats exposed to hypoxic-ischemic injury (HI); test: Hypoxic-ischemic injury (HI), modified Levine model, tissue damage score; assay type: in vivo, Wistar rats
Text: Adult rats (Wistar, 280-310 g, male) were used. The modified Levine model preparation and experimental procedures were used (Rice et al, 1981, Ann. Neurol. :9: 131-141; Guan et al J., 1993, Cereb. Blood Flow Metab.: 13(4): 609-16). These procedures in brief, consist of an HI injury induced by unilateral carotid artery ligation followed by inhalational asphyxia in the animals with an implanted lateral ventricular cannula. A guide cannula was stereotaxically placed on the top of the dura 1.3 mm to the right of the mid-line and 7.3 mm anterior to the interaural zero plane under halothane anaesthesia. The right carotid artery was double ligated two days after the cannulation. After 1 hour recovery from the anaesthesia, each of the rats were placed in an incubator where the humidity (90±5%) and temperature (31°±0.5° C.) were controlled for another hour, then exposed to hypoxia (6% oxygen) for 10 min. […]
Coronal sections 8 μm in thickness were cut from the striatum, cerebral cortex and hippocampus and were stained with thionin and acid fuchsin. The histological outcome was assessed at three levels: (1) the mid level of the striatum, (2) where the completed hippocampus first appeared and (3) the level where the ventral horn of the hippocampus just appears. The severity of tissue damage was scored in the striatum, cortex and the CA1-2, CA3, CA4 and dentate gyrus of the hippocampus. […]

Which “cumulative duration of total social sniffing” value [1] does the source give for C=CC[C@]12CCCN1C(=O)CNC2=O [cG-2-AllylP, (8aS)-Allyl-hexahydropyrrolo[1,2-a]pyrazine-1,4-dione] here?
The value was “significant increase in the cumulative duration of total social sniffing”.

And the “number of ultrasonic vocalizations” value [1]?
The value was “increased number of ultrasonic vocalizations”.

And the EPSC amplitude (layer 5 cortical neurons)?
The EPSC amplitude was “significantly larger in amplitude”.

And the bouts of sniffing (fmr1-knockout animals)?
The bouts of sniffing was “about 21”.

What about the “toxicity (coat, piloerection, eyes, gait, tremor, tail tone, reactivity)” value [2] of the same compound?
Its value is “No instances of toxicity have been observed”.

And the tissue damage score ([3]; 2 ng icv 2 hours after HI, each brain region, vs vehicle p<0.001)?
Its tissue damage score is “significantly reduced the tissue damage in each brain region examined”.

And the “neural damage after hypoxia/ischemia” value ([3]; 2, 4, 20, 100 ng icv, all other sites and all other doses)?
The value was “lessened the neural damage effects of hypoxia/ischemia”.
